Common to all, as to assay type: biochemical
One test deals with T1, sucrase (Homo sapiens, UniProt P14410).
T1 construct: suspending small intestinal brush border membrane vesicles in 0.1 M maleic acid buffer (pH 6.0); from tissue; host or cells: small intestinal brush border membrane vesicles
Nature of the test: α-glycosidase-inhibiting activity, sucrase (small intestinal brush border membrane vesicles). The note with it: substrate sucrose (74 mM), 0.1 M maleic acid buffer pH 6.0, 37° C., 30 minutes, glucose-oxidase method. As for the experimental part:
(§1) The compounds (6a), (6b), (6c) and (6d), each prepared by Example 25, as well as the compound (6g) prepared by Example 27 were each measured for α-glycosidase-inhibiting activity. […] To each of sucrose (74 mM), maltose (74 mM) and isomaltose (74 mM) solution as a substrate, there was added a solution (0.05 ml) of a test compound in various concentrations, and the resulting mixture was pre-heated at 37° C. for 2 to 3 minutes, followed by addition of an enzyme solution and reaction for 30 minutes. Thereafter, water was added and the resulting mixture was heated in a boiling water bath for 2 minutes in order to inactivate the enzyme. Separately, the enzyme solution was added to each of the test solutions and immediately thereafter heated in boiling water bath for 2 minutes to inactivate the enzyme. This solution was used as a blank. The amount of […] D-glucose was measured in accordance with glucose-oxidase method. The substrate and test compounds were used in a solution of 0.1 M maleic acid buffer (pH 6.0). A 50% inhibitory concentration (IC50) was calculated from the value observed.

The next test addresses maltase. Nature of the test: α-glycosidase-inhibiting activity, maltase (small intestinal brush border membrane vesicles). The note with it: substrate maltose (74 mM), 0.1 M maleic acid buffer pH 6.0, 37° C., 30 minutes, glucose-oxidase method. The method, then: as §1
For a further test, the target named is T2, isomaltase (Homo sapiens, UniProt P14410).
T2 construct: suspending small intestinal brush border membrane vesicles in 0.1 M maleic acid buffer (pH 6.0); from tissue; host or cells: small intestinal brush border membrane vesicles
T2 sequence (P14410 whole entry, species assumed): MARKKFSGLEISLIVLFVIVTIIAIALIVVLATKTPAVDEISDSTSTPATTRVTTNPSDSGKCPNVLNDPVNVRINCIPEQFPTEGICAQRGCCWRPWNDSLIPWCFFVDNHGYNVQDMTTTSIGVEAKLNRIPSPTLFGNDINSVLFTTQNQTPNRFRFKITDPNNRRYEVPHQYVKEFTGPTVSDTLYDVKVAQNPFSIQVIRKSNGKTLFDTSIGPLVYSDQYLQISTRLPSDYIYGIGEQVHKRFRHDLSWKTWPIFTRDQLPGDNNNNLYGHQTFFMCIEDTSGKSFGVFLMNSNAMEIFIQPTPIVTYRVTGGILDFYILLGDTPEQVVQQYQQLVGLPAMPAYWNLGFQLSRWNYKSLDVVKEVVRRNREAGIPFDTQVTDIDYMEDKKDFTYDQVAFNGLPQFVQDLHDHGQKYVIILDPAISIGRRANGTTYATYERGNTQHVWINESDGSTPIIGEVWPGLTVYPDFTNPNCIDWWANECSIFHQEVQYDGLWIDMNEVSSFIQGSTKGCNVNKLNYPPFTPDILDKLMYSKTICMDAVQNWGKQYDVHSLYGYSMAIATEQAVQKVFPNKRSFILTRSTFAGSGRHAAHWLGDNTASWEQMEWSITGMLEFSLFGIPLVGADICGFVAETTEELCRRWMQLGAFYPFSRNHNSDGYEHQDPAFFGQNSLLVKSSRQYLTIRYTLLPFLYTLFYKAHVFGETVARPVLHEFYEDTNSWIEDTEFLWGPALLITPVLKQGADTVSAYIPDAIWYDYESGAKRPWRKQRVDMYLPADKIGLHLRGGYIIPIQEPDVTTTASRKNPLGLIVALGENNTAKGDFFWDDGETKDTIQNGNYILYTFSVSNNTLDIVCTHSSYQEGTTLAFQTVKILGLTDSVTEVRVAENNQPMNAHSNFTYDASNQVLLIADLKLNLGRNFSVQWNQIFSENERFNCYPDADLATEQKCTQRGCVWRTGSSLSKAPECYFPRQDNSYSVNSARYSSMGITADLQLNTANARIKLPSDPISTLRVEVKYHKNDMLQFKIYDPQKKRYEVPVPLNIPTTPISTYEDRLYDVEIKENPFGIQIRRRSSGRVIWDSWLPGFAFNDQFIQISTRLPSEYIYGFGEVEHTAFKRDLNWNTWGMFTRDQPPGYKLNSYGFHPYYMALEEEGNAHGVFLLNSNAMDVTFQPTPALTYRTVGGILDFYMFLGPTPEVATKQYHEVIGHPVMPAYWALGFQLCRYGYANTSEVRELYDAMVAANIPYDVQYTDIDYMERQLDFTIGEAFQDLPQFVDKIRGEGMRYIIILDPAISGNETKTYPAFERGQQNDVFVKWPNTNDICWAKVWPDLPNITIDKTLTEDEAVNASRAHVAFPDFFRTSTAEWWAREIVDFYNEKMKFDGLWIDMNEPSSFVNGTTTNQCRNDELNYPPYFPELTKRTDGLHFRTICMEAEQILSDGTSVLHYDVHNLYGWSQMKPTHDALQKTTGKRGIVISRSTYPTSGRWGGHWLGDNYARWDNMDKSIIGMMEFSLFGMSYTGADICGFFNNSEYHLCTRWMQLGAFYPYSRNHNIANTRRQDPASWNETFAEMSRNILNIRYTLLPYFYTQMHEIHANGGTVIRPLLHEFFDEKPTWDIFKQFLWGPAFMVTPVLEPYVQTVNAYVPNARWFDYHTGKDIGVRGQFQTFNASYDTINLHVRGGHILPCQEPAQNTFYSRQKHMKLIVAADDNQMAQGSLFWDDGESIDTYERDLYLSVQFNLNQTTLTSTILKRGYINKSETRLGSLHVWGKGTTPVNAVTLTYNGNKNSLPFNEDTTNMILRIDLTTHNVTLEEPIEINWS
Kind of test: α-glycosidase-inhibiting activity, isomaltase (small intestinal brush border membrane vesicles). The note with it: substrate isomaltose (74 mM), 0.1 M maleic acid buffer pH 6.0, 37° C., 30 minutes, glucose-oxidase method. As for the experimental part:
as §1

Molecules are shown by their SMILES. In brackets after ≈: the same amount, converted by molar mass. Some results are limits rather than exact numbers.

T1 sequence (P14410 whole entry, species assumed): as above

On to `O=S(=O)([O-])OC(C(O)C[S+]1CC(O)C(O)C1CO)C(O)C(O)C(O)CO` (stereo not drawn) [Compound (6c)], for which the IC50 against sucrase is 214 µM; at isomaltase it was 16.2 µM. For the same molecule, the “IC50, maltase” value against maltase was more than 100 µg/mL.
For the molecule `O=S(=O)([O-])OC(C(O)C[S+]1CC(O)C(O)C1CO)C(O)C(O)C(O)CO` (single isomer, unassigned) [Compound (6d)], the IC50 against sucrase was 32.3 µM; against isomaltase it was 6.53 µM. For the same molecule, the “IC50, maltase” value against maltase amounted to 24.8 µg/mL (≈ 58.4 µM).
For `O=S(=O)([O-])OC(C(O)C[S+]1CC(O)C(O)C1CO)C(O)C(O)C(O)CO` (single isomer, unassigned) [Compound (6a)], in that order: 66.9 µM, 1.63 µM and 20.6 µg/mL (≈ 48.5 µM).
In the same order, the values of `O=S(=O)([O-])OC(C(O)C[S+]1CC(O)C(O)C1CO)C(O)C(O)C(O)CO` (single isomer, unassigned) [Compound (6g)] are more than 236 µM, 158 µM and more than 100 µg/mL.
In the same order, the values of `O=S(=O)([O-])OC(C(O)C[S+]1CC(O)C(O)C1CO)C(O)C(O)C(O)CO` (single isomer, unassigned) [kotalanol, reference compound] are 0.754 µM, 5.68 µM and 3.07 µg/mL (≈ 7.23 µM).
On to `O=S(=O)([O-])OC(C(O)C[S+]1CC(O)C(O)C1CO)C(O)C(O)C(O)CO` (single isomer, unassigned) [Compound (6b)], for which the values for the half-maximal inhibitory concentration (IC50) against sucrase and against isomaltase were 136 µM and 10.8 µM, respectively. At maltase, the “IC50, maltase” value is more than 100 µg/mL.

For the origin of these results see patent US20100063302A1, “CYCLIC SULFONIUM SALT, METHOD FOR PRODUCTION OF CYCLIC SULFONIUM SALT, AND GLYCOSIDASE INHIBITOR” (Takano Co., Ltd., priority 2007, published 2010).
